# Several values for one entry are separate records, joined by “and”; a condition that tells them apart may be missing. Equal entries are not always repeated. Entries after “also recorded” stand apart in the source; their conditions may differ.
# How the values were obtained:
# Sigma σ2 Receptor = target: T1, Sigma σ2 Receptor (Rattus norvegicus, UniProt Q5U3Y7); test: Sigma σ2 receptor radioligand binding ([3H]Ifenprodil); details: 10 μM solutions; Wistar rat brain; 3 nM [3H]Ifenprodil
# T1 construct: Source: Wistar rat brain; from tissue; host or cells: Wistar rat brain
# T1 sequence (Q5U3Y7 1-176): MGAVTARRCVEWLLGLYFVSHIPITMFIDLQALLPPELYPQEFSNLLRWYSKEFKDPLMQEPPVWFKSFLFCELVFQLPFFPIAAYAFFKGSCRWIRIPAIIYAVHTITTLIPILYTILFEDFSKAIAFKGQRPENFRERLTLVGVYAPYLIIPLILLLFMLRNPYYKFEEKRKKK
# Procedure: The four dihydrotetrabenazine isomers A, B, C and D subjected to specific binding assays to test their ability to bind to the sigma-1 and sigma-2 receptors.
# Reference: Hashimoto et al., Eur. J. Pharmacol., 236:159-163, (1993) Source: Wistar rat brain
# Incubation time/Temp: 60 minutes @ 37° C.
# Bmax: 1.3 pmole/mg protein Specific binding: 85% Quantitation method: Radioligand binding Significance criteria: ≧50% of maximum stimulation or inhibition
# Sigma σ1 Receptor = target: T2, Sigma σ1 Receptor (Homo sapiens, UniProt Q99720); test: Sigma σ1 receptor radioligand binding ([3H]Haloperidol); details: for Percentage Inhibition of Specific Binding at Sigma-1 Receptor: 10 μM solutions, human jurkat cells, 8 nM [3H]Haloperidol
# T2 construct: Source: Human jurkat cells; endogenous in cells; host or cells: Human Jurkat cells
# T2 sequence (Q99720 whole entry): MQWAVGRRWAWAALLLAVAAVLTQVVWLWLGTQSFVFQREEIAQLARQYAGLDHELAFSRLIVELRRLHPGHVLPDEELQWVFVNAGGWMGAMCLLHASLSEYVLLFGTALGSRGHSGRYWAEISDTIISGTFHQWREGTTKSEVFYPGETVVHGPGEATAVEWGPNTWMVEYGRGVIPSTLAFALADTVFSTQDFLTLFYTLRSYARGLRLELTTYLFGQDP
# Procedure: The four dihydrotetrabenazine isomers A, B, C and D subjected to specific binding assays to test their ability to bind to the sigma-1 and sigma-2 receptors. (a) Sigma σ1 Receptor: Reference: […] et al., Pharmacol. Exp. Ther., 289:251-260, (1999) Source: Human jurkat cells […] Vehicle: 1% DMSO Incubation time/Temp: 4 hours (25° C.
# [1] = system: LPS/IFNγ stimulated human CD14+ monocytes; test: LPS/IFN stimulated production of cytokines by human monocytes (CBA cytokine analysis); format: cell-based
# Procedure: The compounds of the invention were tested to determine the extent to they can modulate the production of cytokines by human monocytes. Monocytes are precursors of macrophages and are a key source of inflammatory cytokines in a wide range of disease states.
# The following treatment groups were set up.
# MACS Buffer: 1×PBS pH 7.2, 2 mM EDTA (Sigma), 5% human AB serum Culture Media: 500 ml RPMI 1640 (Invitrogen), 5 ml Penstrep (Sigma), 5 ml L-glutamine (Invitrogen), 10 ml HEPES (Sigma), 5% autologous plasma. Compounds: Stock at 10 mM in absolute ethanol. LPS: Salmonella abortis at 1 mg/ml (Sigma, Cat # LI 887). IFNγ: Recombinant human at 10 μg/ml (BD Pharmacia, Cat # 554617). MACS CD14 positive selection beads and LS columns (Miltenyi Biotech). CD14: FITC antibody (Miltenyi Biotech) Buffy coat obtained from Bristol National Blood Services. 1 ml of blood should give 7×10^6 total cells.
# Spin buffycoat at 3500 rpm, 10 min. Remove upper plasma layer and heat-inactivate at 56° C., 30 min. Spin at 3500 rpm, 10 min to remove heat-inactivated complement proteins etc.
# 1. Resuspend remaining buffycoat in an equal volume of RPMI 1 640 medium and mix by inversion. 2. Prewarm histopaque (Sigma) to room temperature (RT) and add 10 ml to a universal. 3. Gently overlay with 15 ml blood/medium mix. 4. Spin at 1600 rpm for 25 minutes at RT (no brake). 5. PBMC are separated into the interface layer between the medium and the histopaque, remove cells to a 50 ml Falcon and add 10 ml medium.
# 6. Spin at 1800 rpm for 10 min at RT.
# 7. Wash ×3 with 40 ml RPMI medium and resuspend in culture medium. Isolate CD14^+ Cells by Positive Selection with CD14^+ MicroBeads Work on ice, with pre-cooled solutions. 1. Determine cell numbers (313×10×5×10^4=1.565×10^8 total cells) 2. Remove 100 μl cell sample for Fluorescence-Activated Cell-Sorting (FACS) analysis (pre-selection sample). 3. Spin at 1800 rpm for 10 minutes at 4° C. Remove supernatant. 4. Resuspend pellet in 80 μl buffer per 1×10^7 total cells (2400 μL/total cells). 5. Add 20 μl CD14 MicroBeads per 1×10^7 total cells (400 μl/total cells). 6. Mix well and incubate for 15 minutes at 4-8° C. 7. Wash cells with 1-2 ml buffer, spin at 300×g, 10 minutes at 4° C. Remove supernatant. 8. Resuspend up to 1×10^8 cells in 500 μl buffer (1 ml/total cells). Magnetic Separation with LS Column 1. Place column in magnetic field of MACS® Separator. Rinse column with 3 ml of MACS buffer. 2. Add cell suspension to column. 3. Collect unlabelled cells which pass through. Wash column with 3×3 ml buffer, allowing the column reservoir to empty between each wash. Collect total effluent (unlabelled cell fraction). 4. Remove column from separator and place on collection tube. 5. Add 5 ml buffer to column, immediately flushing out fraction with magnetically labelled cells by applying column plunger. 6. Spin cells in MACS Buffer and resuspend cell pellet in media. 7. Perform cell count on positively selected cells. • 71×20×5×10^4=7.1×10^7 cells/ml. Have 1.75 ml∴1.24×10^8 total cells. 8. Take sample to check purity by FACS add 10 μl CD14-FITC antibody and incubate, 5 minutes at 4-8° C.
# Prepare compounds at 10 mM in absolute ethanol. Dilute prior to culture in media to the required concentrations.
# Isolated CD14^+ monocytes were cultured in 24-well plates at 1×10^6 cells/ml/well. The monocytes were cultured in the presence of the test compounds and controls at various dilutions as set out in the table below. After overnight incubation, LPS (10 μg/ml) and IFNγ (100 ng/ml) were added to stimulate monocyte activation and elevate CB2 expression. After 48 hours, the supernatants were removed for CBA cytokine analysis.
# Bring all buffers to room temperature and vortex before use 1. Make up assay buffer by adding to 450 ml distilled H2O and mixing gently. Store at 4° C. 2. Make up biotin-conjugate mix by 600 μl of each biotin-conjugates into a universal. 3. Make up bead mix by adding 300 μl of each bead set. 4. […]
# [2] = system: T cells (balb/c mouse spleen cells); test: T cell proliferation (3H-thymidine incorporation, anti-CD3 coated plates); format: cell-based; details: plates 1-3 are triplicates
# Procedure: The compounds of the invention were tested to determine the extent to they can inhibit T cell proliferation. T cells are responsible for co-ordinating the adaptive immune response and are drivers of inflammation in a wide range of disease states.
# HBSS+2% HEPES buffer (500 ml+10 ml), Alpha MEM (500 ml)+2% HEPES (10 ml)+1% Pen/strep (5 ml)+2% L-Glutamine (10 ml)+50 μM 2-ME (500 μl) and Normal Mouse serum (NMS)
# 1. Coat 3×96 well plates columns 1-8, rows A-H with 100 μl anti-mouse CD3 at […] in PBS. 192 well in total, therefore made up 24 mls in PBS by adding 17 μl of stock at 1.44 mg/ml. Incubate 2 hours 37° C. 2. Pooled blood from 2 balb/c mice following cardiac puncture for preparation of NMS and removed spleens into HBSS+Hepes. 3. Placed blood at 37° C. for 30 minutes to clot, spun 3,000 rpm, 10 minutes in chilspin. Removed serum, filter sterilised and kept in fridge until use. 4. Transferred spleens to petri dishes containing 10 ml HBSS, used clean sterile wire mesh placed over spleen to release cells using a glass rod. Washed cells off mesh using pasteur pipette and transferred to a 15 ml tube. Spun at 1000 rpm for 10 minutes at room temperature (RT). 5. Resuspended cells, added 0.5 ml sterile DW to lyse RBC, mixed and immediately diluted in HBSS, transfered to 50 ml tube passing through cell strainer (70 μM) to remove debris, spun as above, washed cells once more in HBSS and finally resuspended in […] alpha MEM containing supplements (as above). 6. Cell counts—252 cells×2×5×10^4=2.52×10^7 cells/ml in 4 mls=10^8 cells in total. Dilute 2 mls to 25 mls to give a cell concentration of 2×10^6 cells/ml. 7. Added 250 μl NMS to cells to give a concentration of 1%. 8. Washed anti-CD3 coated plates 3×PBS. 9. Transferred 100 μl aliquots of cells to coated wells, rows A-H columns 1-8 of 3×96-well plates. Add equal volume of compounds diluted in a 96 well plate as shown below.
# Transferred 3.5 μl compound at 10 mM to 346.5 μl media (1/100), transferred 35 μl of 1/100 dilution to 315 μl media (1/10) and so on down plate to give serial 1/10 dilutions of compound. Transferred 100 μl aliquots of different compound dilutions to wells of triplicate plates containing T cells.
# Culture for 48 hours, then add a drop (16 μl) of ^3H-thymidine to each well and incubate overnight at 37° C. 5% CO2. Harvest. Measure ^3H-thymidine incorporation.
structure (smiles),measurement,setting,value
"COc1cc2c(cc1OC)[C@@H]1C[C@@H](O)[C@H](CC(C)C)CN1CC2 (single isomer, unassigned) [Isomer A]",Percentage Inhibition of Specific Binding at Sigma-2 Receptor,Sigma σ2 Receptor,64%
same,Percentage Inhibition of Specific Binding at Sigma-1 Receptor,Sigma σ1 Receptor,48%
"COc1cc2c(cc1OC)[C@H]1C[C@H](O)[C@@H](CC(C)C)CN1CC2 (single isomer, unassigned) [Isomer B]",reduced production of IL-4,"[1]; LPS/IFN stimulated monocytes, 100 μM to 10 pM, FIG. 2",at the majority of concentrations tested
same,reduced production of IL-2,"[1]; LPS/IFN stimulated monocytes, 100 μM to 10 pM, FIG. 3",at all concentrations tested
same,reduced production of IL-5,"[1]; LPS/IFN stimulated monocytes, 100 μM to 10 pM, FIG. 4",at the majority of concentrations tested
same,reduced production of IL-10,"[1]; LPS/IFN stimulated monocytes, 100 μM to 10 pM, FIG. 5",at the majority of concentrations tested
same,reduced production of IL-12,"[1]; LPS/IFN stimulated monocytes, 100 μM to 10 pM, FIG. 6",at all concentrations tested
same,production of a range of different cytokines in monocytes,"[1]; monocytes stimulated by LPS/IFN, FIGS. 1 to 6",reduced the production
same,Percentage Inhibition of Specific Binding at Sigma-2 Receptor,Sigma σ2 Receptor,64%
same,Percentage Inhibition of Specific Binding at Sigma-1 Receptor,Sigma σ1 Receptor,82%
same,binding to the sigma-1 receptor (in words),Sigma σ1 Receptor; comparison of the four isomers,bind more strongly; also recorded: stronger binding
same,T cell Proliferation (3H-thymidine incorporation),"[2]; listed as A = 100 μM, listed as RU350",42 and 51.4 and 28
same,T cell Proliferation (3H-thymidine incorporation),"[2]; listed as C = 1 μM, listed as RU350",62557.5 and 58812.6 and 46179.1
same,T cell Proliferation (3H-thymidine incorporation),"[2]; listed as D = 100 nM, listed as RU350",63867.2 and 67792.8 and 54194.4
same,T cell Proliferation (3H-thymidine incorporation),"[2]; listed as E = 10 nM, listed as RU350",66290 and 70736.7 and 53277.2
same,T cell Proliferation (3H-thymidine incorporation),"[2]; listed as F = 1 nM, listed as RU350",49054.3 and 74224 and 58924.4
same,T cell Proliferation (3H-thymidine incorporation),"[2]; listed as G = 100 pM, listed as RU350",46056.3 and 60937.4 and 59965.8
same,T cell Proliferation (3H-thymidine incorporation),"[2]; listed as H = 10 pM, listed as RU350",52646.7 and 41897.1 and 57220.4
"CCCCCCC(C)(C)c1cc(O)c2c(c1)OC(C)(C)C1CCC(=O)CC21 (stereo not shown) [Nab, Nabilone, reference compound]",T cell Proliferation (3H-thymidine incorporation),[2]; listed as B = 10 μM,72188.2 and 78370.5 and 40910.7
same,T cell Proliferation (3H-thymidine incorporation),[2]; listed as C = 1 μM,48534.9 and 44235.7 and 52155.5
same,T cell Proliferation (3H-thymidine incorporation),[2]; listed as D = 100 nM,65222 and 55348.5 and 41607.6
same,T cell Proliferation (3H-thymidine incorporation),[2]; listed as E = 10 nM,44970.2 and 46765.1 and 36442
same,T cell Proliferation (3H-thymidine incorporation),[2]; listed as F = 1 nM,36994.3 and 35152.2 and 37988.7
same,T cell Proliferation (3H-thymidine incorporation),[2]; listed as G = 100 pM,37202.7 and 44920.7 and 36359.1
same,T cell Proliferation (3H-thymidine incorporation),[2]; listed as H = 10 pM,38818.1 and 34530 and 39295.7

# Source: patent US20090275605A1, “3,11 b-cis-Dihydrotetrabenazine for the Treatment of a Proliferative Disease or an Inflammatory Disease” (CAMBRIDGE LABORATORIES (IRELAND) LIMITED, priority 2005, published 2009)
